Experimental data published in paper PMC9960274, “Peptidic Inhibitors and a Fluorescent Probe for the Selective Inhibition and Labelling of Factor XIIIa Transglutaminase” (Molecules, 2023).
Entries after “also recorded” stand apart in the source; their conditions may differ. Starred links: 1 amine or outer side, 2 acyl side, 3 side chain; linkers in the order of their positions; H or OH if unused. Non-standard residues stand in square brackets, D forms with d. Residues, ends and D or L forms follow the SMILES beside them. *: point of attachment. RhodamineB = CCN(CC)c1ccc2c(-c3ccccc3C(=O)*)c3ccc(=[N+](CC)CC)cc-3oc2c1; X1 = COC(=O)/C=C/CC[C@H](N[*:1])C(=O)[*:2]; X2 = COC(=O)C=CCCC[C@H](N[*:1])C(=O)[*:2]; X3 = COC(=O)C=CC[C@H](N[*:1])C(=O)[*:2]; Nle = CCCC[C@H](N)C(=O)O; Orn = NCCC[C@H](N)C(=O)O; Dab = NCC[C@H](N)C(=O)O; Acryloyl = C=CC(=O)*; Ahx = NCCCCCC(=O)O

Biological target: T1, Human TG2 (Homo sapiens, UniProt P21980)
T1 construct: made in house
T1 sequence (P21980 1-687): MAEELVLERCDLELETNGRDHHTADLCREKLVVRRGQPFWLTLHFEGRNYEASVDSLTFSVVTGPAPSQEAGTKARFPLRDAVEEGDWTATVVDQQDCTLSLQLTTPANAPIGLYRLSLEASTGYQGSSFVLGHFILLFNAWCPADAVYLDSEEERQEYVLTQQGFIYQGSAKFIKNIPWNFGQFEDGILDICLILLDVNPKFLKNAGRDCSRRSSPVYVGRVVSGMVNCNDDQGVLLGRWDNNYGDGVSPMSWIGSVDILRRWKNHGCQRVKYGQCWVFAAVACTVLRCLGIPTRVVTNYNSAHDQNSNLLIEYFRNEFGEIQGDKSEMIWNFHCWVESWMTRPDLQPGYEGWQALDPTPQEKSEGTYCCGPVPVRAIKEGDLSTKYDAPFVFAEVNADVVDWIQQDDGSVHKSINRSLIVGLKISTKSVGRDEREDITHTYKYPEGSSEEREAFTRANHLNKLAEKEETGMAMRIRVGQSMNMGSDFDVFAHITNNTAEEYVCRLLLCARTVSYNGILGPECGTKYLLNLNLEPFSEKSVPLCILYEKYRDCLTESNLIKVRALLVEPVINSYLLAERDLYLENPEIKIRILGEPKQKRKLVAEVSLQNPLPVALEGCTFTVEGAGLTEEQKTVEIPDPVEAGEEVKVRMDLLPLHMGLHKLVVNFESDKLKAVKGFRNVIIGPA
Assay: Colorimetric AL5 transamidase assay of TG2 inhibition kinetics
Assay type: biochemical
Settings: for TG2 Inh. Mode: Irrev = irreversible, None = no inhibition detected up to 350 μM; for kinact/KI / kinact: irreversible inhibition; for TG2 inhibition: up to 360 µM; for kinact: saturation fit
Experimental: All inhibitors synthesised herein were evaluated for inhibition against FXIIIa, using the fluorescence-quenched A101 isopeptidase assay, and against TG2, using the colorimetric AL5 transamidase assay. The assay substrates A101 and AL5 both present labile bonds that are cleaved by the activities of their corresponding transglutaminases, resulting in the release of a fluorophore or chromophore moiety, respectively. The rate of consumption of these assay substrates, indicated by increases in fluorescence or absorbance over time, can be detected for measuring enzyme activity. Assays were run in duplicate at constant reporter substrate concentration with varying concentrations of inhibitor. The type of inhibition was determined through visual inspection of the fluorescence-time curvature; termination of the enzymatic reaction with the substrate at a plateau lower than the no-inhibitor positive control is indicative of irreversible inhibition. On the other hand, convergence to a common plateau indicates reversible inhibition.
A colorimetric transamidase assay using chromogenic substrate AL5 (Cbz-Glu(ɣ-p-nitrophenyl ester)Gly-OH) was used to determine TG2 inhibition kinetics as described previously. In brief, assays were conducted at 25 °C in 96-well plates, and absorbance at 405 nm was monitored continuously using a BioTek Synergy 4 plate reader. For each compound, 6 inhibitor concentrations were tested, along with positive (no inhibitor) and negative (no enzyme, no inhibitor) controls. All assays were run in duplicate as separate independent experiments. Human TG2 expressed and purified as described previously and stored in aqueous buffer at −80 °C, was first thawed and diluted to a working concentration of 50 mU/mL in the buffer. The diluted enzyme solution was stored on ice. The appropriate amount of distilled water, 125 μL of aqueous buffer (111 mM MOPS, 15.6 mM CaCl2, pH 6.9), the desired amount of inhibitor (from a DMSO stock solution), and 5.0 μL of AL5 (from a 5.56 mM DMSO solution) were added in that order to 7 Eppendorf tubes to reach final volumes of 250 μL per tube. After mixing thoroughly, 180 μL of the mixture from each tube was transferred to plate wells. To initiate the assay, 20 μL of the diluted TG2 solution was added using a multichannel pipette to each well except the negative control, which was treated with water. The final reaction conditions were pH 6.9, 50.0 mM MOPS, 7.0 mM CaCl2, 100 μM AL5, and 5 mU/mL TG2. […] Data collection was then initiated after mixing by quick aspiration, and the assay was allowed to run for 20 min.
The type of inhibition for both TG2 and FXIIIa was primarily determined by visual inspection of kinetic traces. […] This assumption was tested and validated with inhibitor 47 through an A101 substrate spike experiment. Additional A101 (5 μL of 4000 μM stock in DMSO) was added to enzymatic reactions lacking in inhibitor (positive control) and pre-treated with inhibitor (50, 100, 150, 200 μM) after the initial reactions were complete and fluorescence plateaus had been reached. Data collection at 37 °C was re-commenced immediately after the addition, and fluorescence was monitored over time as previously described. On the other hand, inhibitors producing kinetic curves in which earlier and lower plateaus in fluorescence or absorbance were observed as inhibitor concentration was increased were assumed to be operating through irreversible time-dependent covalent inactivation. This assumption was tested and validated with inhibitor 23 through an A101 substrate spike experiment in which an additional 5 μL of A101 substrate stock solution (4000 μM in DMSO) was added to the positive control and highest inhibitor concentration (200 μM) reaction. […]

[1] = small molecule series, irreversible KI for 87 and 88

With C=CC(=O)NCC[C@H](NC(=O)[C@@H](CC(=O)O)NC(C)=O)C(=O)N[C@@H](CCCC)C(=O)N[C@@H](CCCC)C(=O)N[C@@H](CC(C)C)C(=O)N1CCC[C@H]1C(=O)N[C@@H](Cc1c[nH]c2ccccc12)C(=O)N1CCC[C@H]1C(=O)O [Compound 12, Ac-D-Asp-Dab(Acrylamide)-Nle-Nle-Leu-Pro-Trp-Pro-OH] (Ac-[dD][Dab](Acryloyl)[Nle][Nle]LPWP-OH) as the compound, how does the “TG2 Inh. Mode” value read?
Its value is “No inhibition; also recorded: None **”.

With C=CC(=O)NCCC[C@H](NC(=O)[C@@H](CC(=O)O)NC(C)=O)C(=O)N[C@@H](CCCC)C(=O)N[C@@H](CCCC)C(=O)N[C@@H](CC(C)C)C(=O)N1CCC[C@H]1C(=O)N[C@@H](Cc1c[nH]c2ccccc12)C(=O)N1CCC[C@H]1C(=O)O [Compound 13] (Ac-[dD][Orn](Acryloyl)[Nle][Nle]LPWP-OH) as the compound, how does the “TG2 Inh. Mode” value read?
The value was “No inhibition; also recorded: None **”.

Which “TG2 Inh. Mode” value does the source give for C=CC(=O)NCCCC[C@H](NC(=O)[C@@H](CC(=O)O)NC(C)=O)C(=O)N[C@@H](CCCC)C(=O)N[C@@H](CCCC)C(=O)N[C@@H](CC(C)C)C(=O)N1CCC[C@H]1C(=O)N[C@@H](Cc1c[nH]c2ccccc12)C(=O)N1CCC[C@H]1C(=O)O [Compound 14] (Ac-[dD]K(Acryloyl)[Nle][Nle]LPWP-OH) here?
Its value is “No inhibition; also recorded: None **”.

For CCCC[C@H](NC(=O)[C@H](CC=CC(=O)OC)NC(=O)[C@@H](CC(=O)O)NC(C)=O)C(=O)N[C@@H](CCCC)C(=O)N[C@@H](CC(C)C)C(=O)N1CCC[C@H]1C(=O)N[C@@H](Cc1c[nH]c2ccccc12)C(=O)N1CCC[C@H]1C(=O)O [Compound 45] (Ac-[dD][X3][Nle][Nle]LPWP-OH), which “TG2 Inh. Mode” value is on record?
The value was “No inhibition; also recorded: lack of inhibition; also recorded: None **”.

What does the source list for CCCC[C@H](NC(=O)[C@H](CCCC=CC(=O)OC)NC(=O)[C@@H](CC(=O)O)NC(C)=O)C(=O)N[C@@H](CCCC)C(=O)N[C@@H](CC(C)C)C(=O)N1CCC[C@H]1C(=O)N[C@@H](Cc1c[nH]c2ccccc12)C(=O)N1CCC[C@H]1C(=O)O [Compound 47] (Ac-[dD][X2][Nle][Nle]LPWP-OH)?
TG2 Inh. Mode: Irrev; kinact/KI: 530 M⁻¹ s⁻¹

How did the TG2 inhibition (small molecule series) turn out when C=CC(=O)NCC(NC(=O)CC(=O)O)C(=O)N1CCN(S(=O)(=O)c2cccc3c(N(C)C)cccc23)CC1 (stereo not drawn) [Compound 71] was run?
The TG2 inhibition was “No inhibition”.

C=CC(=O)NCC(NC(=O)CC(=O)O)C(=O)N1CCN(C(=O)c2cccc3ccccc23)CC1 (stereo not drawn) [Compound 72] was tested. Which TG2 inhibition (small molecule series) did it give?
The TG2 inhibition was “No inhibition”.

C=CC(=O)NCC(NC(=O)C1(C(=O)OC)CC1)C(=O)N1CCN(S(=O)(=O)c2cccc3c(N(C)C)cccc23)CC1 (stereo not drawn) [Compound 73] was tested. Which TG2 inhibition (small molecule series) did it give?
Its TG2 inhibition is “No inhibition”.

Which TG2 inhibition (small molecule series) does the source give for C=CC(=O)NCC(NC(=O)C1(C(=O)O)CC1)C(=O)N1CCN(S(=O)(=O)c2cccc3c(N(C)C)cccc23)CC1 [Compound 74, Acid-Cyclopropyl-L-Dap(Acryl)-Piperazine-Dansyl] here?
Its TG2 inhibition is “No inhibition”.

C=CC(=O)NCC(NC(=O)CCC(=O)O)C(=O)N1CCN(S(=O)(=O)c2cccc3c(N(C)C)cccc23)CC1 [Compound 75, Succinyl-L-Dap(Acryl)-Piperazine-Dansyl] was tested. Which TG2 inhibition (small molecule series) did it give?
Its TG2 inhibition is “No inhibition”.

With C=CC(=O)NCC(NC(=O)CCC(=O)O)C(=O)N1CCN(S(=O)(=O)c2cccc3ccccc23)CC1 [Compound 76, Succinyl-L-Dap(Acryl)-Piperazine-Sulfonyl-Naphthalene] as the compound, how does the TG2 inhibition (small molecule series) read?
Its TG2 inhibition is “No inhibition”.

With C=CC(=O)NCC(NC(=O)CCC(=O)O)C(=O)N1CCN(C(=O)c2cccc3ccccc23)CC1 [Compound 77, Succinyl-L-Dap(Acryl)-Piperazine-Naphthoyl] as the compound, how does the TG2 inhibition (small molecule series) read?
Its TG2 inhibition is “No inhibition”.

For C=CC(=O)NCC(NS(=O)(=O)CC(=O)O)C(=O)N1CCN(S(=O)(=O)c2cccc3c(N(C)C)cccc23)CC1 (stereo not drawn) [Compound 79], which TG2 inhibition (small molecule series) is on record?
The TG2 inhibition was “No inhibition”.

How did the TG2 inhibition (small molecule series) turn out when C=CC(=O)NC(CNC(=O)CCC(=O)O)C(=O)N1CCN(C(=O)c2cccc3ccccc23)CC1 (stereo not drawn) [Compound 84] was run?
Its TG2 inhibition is “No inhibition”.

Which results are given for COC(=O)C=CCCC(NC(=O)CCC(=O)O)C(=O)N1CCN(C(=O)c2cccc3ccccc23)CC1 (stereo not drawn) [Compound 87]?
kinact/KI: 139 M⁻¹ s⁻¹; kinact: 0.00199 s⁻¹; Ki [1]: 14.3 ± 7 µM

Which results are given for COC(=O)C=CCCC(NC(=O)c1ccccc1C(=O)O)C(=O)N1CCN(C(=O)c2cccc3ccccc23)CC1 (stereo not drawn) [Compound 88]?
kinact/KI: 104 M⁻¹ s⁻¹; kinact: 0.0022 s⁻¹; KI (inactivation) [1]: 21.2 ± 8.96 µM; Ki [1]: 21.2 ± 9 µM

CCCC[C@H](NC(=O)[C@H](CC/C=C/C(=O)OC)NC(=O)[C@@H](CC(=O)O)NC(=O)CCCCCNC(=O)[C@@H]1CCCN1C(=O)c1ccccc1-c1c2ccc(=[N+](CC)CC)cc-2oc2cc(N(CC)CC)ccc12)C(=O)N[C@@H](CCCC)C(=O)N[C@@H](CC(C)C)C(=O)N1CCC[C@H]1C(=O)N[C@@H](Cc1c[nH]c2ccccc12)C(=O)N1CCC[C@H]1C(=O)O [Compound 93] (RhodamineB-P[Ahx][dD][X1][Nle][Nle]LPWP-OH) was tested. Which kinact/KI did it give?
Its kinact/KI is 325 M⁻¹ s⁻¹.

For “Ac-D-Asp-Dap(Acrylamide)-Nle-Nle-Leu-Pro-Trp-Pro-OH [Compound 11]”, which “TG2 Inh. Mode” value is on record?
The value was “No inhibition; also recorded: None **”.
